Patent publication US10681909B2, “Herbicidal triazoles” (FMC Corporation, priority 2014, dated 2020)

Legend:
Test in all cases: Test E preemergence
Conditions in all cases: scale 0 to 100
[1] = tested on: nutsedge, yellow; assay type: in vivo, Cyperus esculentus
Excerpt: (§1) Seeds of plant species selected from corn (Zea mays), soybean (Glycine max), lambsquarters (Chenopodium album), poinsettia, wild (wild poinsettia, Euphorbia heterophylla), pigweed, palmer (palmer pigweed, Amaranthus palmeri), waterhemp (common waterhemp, Amaranthus rudis), surinam grass (Brachiaria decumbens), crabgrass, large (large crabgrass, Digitaria sanguinalis), crabgrass, Brazilian (Brazilian crabgrass, Digitaria horizontalis), panicum, fall (fall panicum, Panicum dichotomiflorum), foxtail, giant (giant foxtail, Setaria faberii), foxtail, green (green foxtail, Setaria viridis), goosegrass (Eleusine indica), johnsongrass (Sorghum halepense), ragweed (common ragweed, Ambrosia elatior), barnyardgrass (Echinochloa crus-galli), sandbur (southern sandbur, Cenchrus echinatus), arrowleaf sida (Sida rhombifolia), ryegrass, Italian (Italian ryegrass, Lolium multiflorum), dayflower, VA (Virginia dayflower, Commelina virginica), field bindweed (Convolvulus arvensis), cocklebur (common cocklebur, Xanthium strumarium), morningglory (Ipomoea coccinea), nightshade (eastern black nightshade, Solanum ptycanthum), kochia (Kochia scoparia), nutsedge, yellow (yellow nutsedge, Cyperus esculentus), smartweed (ladysthumb smartweed, Polygonum persicaria), velvetleaf (Abutilon theophrasti), horseweed (Conyza canadensis), and beggarticks (hairy beggarticks, Bidens pilosa), were planted into a silt loam soil and treated preemergence with test chemicals formulated in a non-phytotoxic solvent mixture which included a surfactant.
(§2) At the same time, plants from these crop and weed species and also waterhemp_RES1, (ALS & Triazine resistant common waterhemp, Amaranthus rudis), and waterhemp_RES2, (ALS & HPPD resistant common waterhemp, Amaranthus rudis) were planted in pots containing Sunshine Redi-Earth® planting medium comprising spaghnum peat moss, vermiculite, starter nutrients and dolomitic limestone were treated with postemergence applications of test chemicals formulated in the same manner. Plants ranged in height from 2 to 18 cm for postemergence treatments (1- to 4-leaf stage). Treated plants and controls were maintained in a greenhouse for 14 to 21 d, after which time all species were compared to controls and visually evaluated. Plant response ratings, summarized in Table E, are based on a scale of 0 to 100 where 0 is no effect and 100 is complete control. A dash (-) response means no test result.

[2] = tested on: kochia; assay type: in vivo, Kochia scoparia
Excerpt: as §1, §2

[3] = tested on: field bindweed; assay type: in vivo, Convolvulus arvensis
Excerpt: as §1, §2

[4] = tested on: velvetleaf; assay type: in vivo, Abutilon theophrasti
Excerpt: as §1, §2

[5] = tested on: crabgrass, large; assay type: in vivo, Digitaria sanguinalis
Excerpt: as §1, §2

[6] = tested on: surinam grass; assay type: in vivo, Brachiaria decumbens
Excerpt: as §1, §2

[7] = tested on: morningglory; assay type: in vivo, Ipomoea coccinea
Excerpt: as §1, §2

[8] = tested on: beggarticks; assay type: in vivo, Bidens pilosa
Excerpt: as §1, §2

[9] = tested on: foxtail, green; assay type: in vivo, Setaria viridis
Excerpt: as §1, §2

[10] = tested on: ragweed; assay type: in vivo, Ambrosia elatior
Excerpt: as §1, §2

[11] = tested on: dayflower, VA; assay type: in vivo, Commelina virginica
Excerpt: as §1, §2

[12] = tested on: waterhemp; assay type: in vivo, Amaranthus rudis
Excerpt: as §1, §2

**Q.** Which results are given for `CCCc1nc(-c2ccc(F)cc2)nn1Cc1ccnc(C(F)(F)F)c1` [Compound 6, 4-[[3-(4-fluorophenyl)-5-propyl-1H-1,2,4-triazol-1-yl]methyl]-2-(trifluoromethyl)pyridine]?
**A.** Plant response rating ([1]; 16 g ai/ha): 0; Plant response rating ([1]; 31 g ai/ha): 0; Plant response rating ([1]; 62 g ai/ha): 15; Plant response rating ([1]; 125 g ai/ha): 30; Plant response rating ([1]; 250 g ai/ha): 40; Plant response rating ([2]; 16 g ai/ha): 60; Plant response rating ([2]; 31 g ai/ha): 80; Plant response rating ([2]; 62 g ai/ha): 80; Plant response rating ([2]; 125 g ai/ha): 85; Plant response rating ([2]; 250 g ai/ha): 100; Plant response rating ([3]; 16 g ai/ha): 10; Plant response rating ([3]; 31 g ai/ha): 10; Plant response rating ([3]; 62 g ai/ha): 30; Plant response rating ([3]; 125 g ai/ha): 50; Plant response rating ([3]; 250 g ai/ha): 70; Plant response rating ([4]; 16 g ai/ha): 0; Plant response rating ([4]; 31 g ai/ha): 30; Plant response rating ([4]; 62 g ai/ha): 40; Plant response rating ([4]; 125 g ai/ha): 50; Plant response rating ([4]; 250 g ai/ha): 70; Plant response rating ([5]; 62 g ai/ha): 90; Plant response rating ([5]; 125 g ai/ha): 100; Plant response rating ([5]; 250 g ai/ha): 100; Plant response rating ([6]; 16 g ai/ha): 20; Plant response rating ([6]; 31 g ai/ha): 40; Plant response rating ([6]; 62 g ai/ha): 40; Plant response rating ([6]; 125 g ai/ha): 50; Plant response rating ([6]; 250 g ai/ha): 50; Plant response rating ([7]; 31 g ai/ha): 10; Plant response rating ([7]; 62 g ai/ha): 10; Plant response rating ([7]; 125 g ai/ha): 30; Plant response rating ([8]; 16 g ai/ha): 0; Plant response rating ([8]; 31 g ai/ha): 0; Plant response rating ([8]; 62 g ai/ha): 0; Plant response rating ([8]; 125 g ai/ha): 20; Plant response rating ([8]; 250 g ai/ha): 70; Plant response rating ([9]; 62 g ai/ha): 70; Plant response rating ([9]; 125 g ai/ha): 80; Plant response rating ([9]; 250 g ai/ha): 100; Plant response rating ([10]; 16 g ai/ha): 10; Plant response rating ([10]; 31 g ai/ha): 20; Plant response rating ([10]; 62 g ai/ha): 20; Plant response rating ([10]; 125 g ai/ha): 50; Plant response rating ([10]; 250 g ai/ha): 90; Plant response rating ([11]; 16 g ai/ha): 10; Plant response rating ([11]; 31 g ai/ha): 60; Plant response rating ([11]; 62 g ai/ha): 70; Plant response rating ([11]; 125 g ai/ha): 80; Plant response rating ([11]; 250 g ai/ha): 90; Plant response rating ([12]; 31 g ai/ha): 80; Plant response rating ([12]; 62 g ai/ha): 100; Plant response rating ([12]; 125 g ai/ha): 100; Plant response rating ([12]; 250 g ai/ha): 100

**Q.** Which Plant response rating ([1]; 62 g ai/ha) does the source give for `CCOc1nc(-c2ccc(F)cc2)nn1Cc1ccnc(C(F)(F)F)c1` [Compound 8, 4-[[5-ethoxy-3-(4-fluorophenyl)-1H-1,2,4-triazol-1-yl]methyl]-2-(trifluoromethyl)pyridine] here?
**A.** The Plant response rating was 25.

**Q.** What about the Plant response rating ([1]; 125 g ai/ha) of the same compound?
**A.** The Plant response rating was 35.

**Q.** And the Plant response rating ([2]; 62 g ai/ha)?
**A.** The Plant response rating was 100.

**Q.** What about the Plant response rating ([2]; 125 g ai/ha) of the same compound?
**A.** Its Plant response rating is 100.

**Q.** And the Plant response rating ([3]; 62 g ai/ha)?
**A.** Its Plant response rating is 70.

**Q.** And the Plant response rating ([3]; 125 g ai/ha)?
**A.** The Plant response rating was 95.

**Q.** And the Plant response rating ([4]; 62 g ai/ha)?
**A.** The Plant response rating was 50.

**Q.** And the Plant response rating ([4]; 125 g ai/ha)?
**A.** The Plant response rating was 98.

**Q.** And the Plant response rating ([5]; 62 g ai/ha)?
**A.** Its Plant response rating is 100.

**Q.** What about the Plant response rating ([5]; 125 g ai/ha) of the same compound?
**A.** The Plant response rating was 100.

**Q.** What about the Plant response rating ([6]; 62 g ai/ha) of the same compound?
**A.** The Plant response rating was 50.

**Q.** And the Plant response rating ([6]; 125 g ai/ha)?
**A.** Its Plant response rating is 75.

**Q.** What about the Plant response rating ([7]; 62 g ai/ha) of the same compound?
**A.** Its Plant response rating is 70.

**Q.** What about the Plant response rating ([7]; 125 g ai/ha) of the same compound?
**A.** Its Plant response rating is 100.

**Q.** What about the Plant response rating ([8]; 62 g ai/ha) of the same compound?
**A.** The Plant response rating was 20.

**Q.** And the Plant response rating ([8]; 125 g ai/ha)?
**A.** The Plant response rating was 20.

**Q.** And the Plant response rating ([9]; 62 g ai/ha)?
**A.** The Plant response rating was 100.

**Q.** And the Plant response rating ([9]; 125 g ai/ha)?
**A.** Its Plant response rating is 100.

**Q.** What about the Plant response rating ([10]; 62 g ai/ha) of the same compound?
**A.** The Plant response rating was 80.

**Q.** What about the Plant response rating ([10]; 125 g ai/ha) of the same compound?
**A.** Its Plant response rating is 90.

**Q.** And the Plant response rating ([11]; 62 g ai/ha)?
**A.** Its Plant response rating is 65.

**Q.** What about the Plant response rating ([11]; 125 g ai/ha) of the same compound?
**A.** The Plant response rating was 95.

**Q.** And the Plant response rating ([12]; 62 g ai/ha)?
**A.** The Plant response rating was 100.

**Q.** What about the Plant response rating ([12]; 125 g ai/ha) of the same compound?
**A.** The Plant response rating was 100.
